Experimental data from ChEMBL document CHEMBL3351324, “Impact of Stereochemistry on Ligand Binding: X-ray Crystallographic Analysis of an Epoxide-Based HIV Protease Inhibitor” (ACS Med Chem Lett, 2014).
Calls of active or inactive are those of the source. No cut-off for these calls is given here.

Assays:
[1] = biological target: Protease (Human immunodeficiency virus 1) (UniProt Q9YQ12); assay: Covalent inhibition of HIV1 protease assessed as covalent modification of enzyme residues by ESI-MS method
[2] = biological target: Protease (Human immunodeficiency virus 1) (UniProt Q9YQ12); assay: Inhibition of HIV1 protease assessed as compound epoxide ring interaction with enzyme active site by X-ray crystallography
[3] = biological target: Protease (Human immunodeficiency virus 1) (UniProt Q9YQ12); assay: Time dependent inhibition of HIV1 protease by standard fluorimetric assay
Protease = Protease (Human immunodeficiency virus 1, UniProt Q9YQ12); assay: Inhibition of HIV1 protease by standard fluorimetric assay
[4] = biological target: Protease (Human immunodeficiency virus 1) (UniProt Q9YQ12); assay: Irreversible inhibition of HIV1 protease by standard fluorimetric assay

inhibition [1]: inactive
inhibition [2]: Active
inhibition [3]: inactive
IC50 (Protease): 670 nM
inhibition [4]: inactive
SMILES: CC(C)[C@H](NC(=O)COc1ccccc1)C(=O)N[C@@H](Cc1ccccc1)[C@@H](O)[C@@H]1O[C@H]1Cc1ccccc1
